Experimental data as given in patent US9428499B2, “Heterocyclyl compounds as MEK inhibitors” (LUPIN LIMITED, priority 2012, dated 2016).

Tested on: ERK phosphorylation
Experiment: Analysis of ERK phosphorylation (Alphascreen SureFire Phospho-ERK 1/2)
Type: cell-based, human and mouse
Settings: cells treated for 1 h; human melanoma cells, human and mouse colon cancer cells; read-out: Minimum concentration (nM) required for ≧80% inhibition of pERK
Protocol: This assay was carried out with human melanoma cells, human and mouse colon cancer cells. Cells were treated for 1 h with various concentrations of test compounds. ERK phosphorylation analysis was performed using the Alphascreen SureFire Phospho-ERK 1/2 Kit (Perkin Elmer), by following the manufacturer's instructions. % inhibition of ERK phosphorylation was determined as: 100−{(RFU test−RFU lysis buffer control)/(RFU vehicle treated control−RFU lysis buffer control)}×100. Percentage inhibition at concentrations of 0.01 nM, 0.03 nM, 0.1-0.9 nM, 1 nM to 3 nM, 4-100 nM, and >100 nM, for the stated examples is setworth here. The percentage inhibition at the above depicted concentrations for the compounds stated are given in the following groups.

SMILES	IC80
Cc1c(=O)n(C)c(Nc2ccc(I)cc2F)c2c(=O)n(CC(O)CO)c(=O)n(-c3cccc(C(=O)NC4CC4)c3)c12 (centres unmarked) [Compound 73, N-cyclopropyl-3-(3-(2,3-dihydroxypropyl)-5-((2-fluoro-4-iodophenyl)amino)-6,8-dimethyl-2,4,7-trioxo-3,4,6,7-tetrahydropyrido[4,3-d]pyrimidin-1 (2H)-yl)benzamide]	4 to 100 nM
Cc1c(=O)n(C)c(Nc2ccc(I)cc2F)c2c(=O)[nH]c(=O)n(-c3cccc(C(=O)N4CCOCC4)c3)c12 [Compound 7, 5-((2-fluoro-4-iodophenyl)amino)-6,8-dimethyl-1-(3-(morpholine-4-carbonyl)phenyl)pyrido[4,3-d]pyrimidine-2,4,7(1H,3H,6H)-trione]	4 to 100 nM
Cc1c(=O)n(C)c(Nc2ccc(I)cc2F)c2c(=O)[nH]c(=O)n(-c3cccc(C(=O)N4CCC(O)CC4)c3)c12 [Compound 18, 5((2-fluoro-4-iodophenyl)amino)-1-(3-(4-hydroxypiperidine-1-carbonyl)phenyl)-6,8-dimethylpyrido[4,3-d]pyrimidine-2,4,7(1H,3H,6H)-trione]	4 to 100 nM
Cc1c(=O)n(C)c(Nc2ccc(I)cc2F)c2c(=O)[nH]c(=O)n(-c3cccc(OC(C)(C)C(N)=O)c3)c12 [Compound 20, 2-(3-(5-((2-fluoro-4-iodophenyl)amino)-6,8-dimethyl-2,4,7-trioxo-3,4,6,7-tetrahydropyrido[4,3-d]pyrimidin-1(2H)-yl)phenoxy)-2-methylpropanamide]	1 to 3 nM
Cc1c(=O)n(C)c(Nc2ccc(I)cc2F)c2c(=O)n(C)c(=O)n(-c3cccc(C(=O)NC4CC4)c3)c12 [Compound 54, N-cyclopropyl-3-(5-((2-fluoro-4-iodophenyl)amino)-3,6,8-trimethyl-2,4,7-trioxo-3,4,6,7-tetrahydropyrido[4,3-d]pyrimidin-1(2H)-yl)benzamide]	1 to 3 nM
Cc1c(=O)n(C)c(Nc2ccc(I)cc2F)c2c(=O)n(C)c(=O)n(-c3cccc(C(=O)N4CCS(=O)(=O)CC4)c3)c12 [Compound 65, 1-(3-(1,1-dioxidothiomorpholine-4-carbonyl)phenyl)-5-((2-fluoro-4-iodophenyl)amino)-3,6,8-trimethylpyrido[4,3-d]pyrimidine-2,4,7(1H,3H,6H)-trione]	0.1 to 0.9 nM
Cc1c(=O)n(C)c(Nc2ccc(I)cc2F)c2c(=O)n(C)c(=O)n(-c3cccc(CC(N)=O)c3)c12 [Compound 42, 2-(3-(5-((2-fluoro-4-iodophenyl)amino)-3,6,8-trimethyl-2,4,7-trioxo-3,4,6,7-tetrahydropyrido[4,3-d]pyrimidin-1(2H)-yl)phenyl)acetamide]	0.1 to 0.9 nM
Cc1c(=O)n(C)c(Nc2ccc(I)cc2F)c2c(=O)n(CCO)c(=O)n(-c3cccc(C(=O)NC4CC4)c3)c12 [Compound 55, N-cyclopropyl-3-(5-((2-fluoro-4-iodophenyl)amino)-3-(2-hydroxyethyl)-6,8-dimethyl-2,4,7-trioxo-3,4,6,7-tetrahydropyrido[4,3-d]pyrimidin-1(2H)-yl)benzamide]	4 to 100 nM
Cc1c(=O)n(C)c(Nc2ccc(I)cc2F)c2c(=O)n(C3CC3)c(=O)n(-c3cccc(C(=O)N4CCC4)c3)c12 [Compound 24, 1-(3-(azetidine-1-carbonyl)phenyl)-3-cyclopropyl-5-((2-fluoro-4-iodophenyl)amino)-6,8-dimethylpyrido[4,3-d]pyrimidine-2,4,7(1H,3H,6H)-trione]	0.1 to 0.9 nM
Cc1c(=O)n(C)c(Nc2ccc(I)cc2F)c2c(=O)[nH]c(=O)n(-c3cccc(C(=O)N4CCC4)c3)c12 [Compound 3, 1-(3-(azetidine-1-carbonyl)phenyl)-5-((2-fluoro-4-iodophenyl)amino)-6,8-dimethylpyrido[4,3-d]pyrimidine-2,4,7(1H,3H,6H)-trione]	1 to 3 nM
CCn1c(=O)c2c(Nc3ccc(I)cc3F)n(C)c(=O)c(C)c2n(-c2cccc(C(=O)N3CCS(=O)(=O)CC3)c2)c1=O [Compound 66, 1-(3-(1,1-dioxidothiomorpholine-4-carbonyl)phenyl)-3-ethyl-5-((2-fluoro-4-iodophenyl)amino)-6,8-dimethylpyrido[4,3-d]pyrimidine-2,4,7(1H,3H,6H)-trione]	0.01 nM
CCn1c(=O)c2c(Nc3ccc(I)cc3F)n(C)c(=O)c(C)c2n(-c2cccc(CCC(N)=O)c2)c1=O [Compound 61, 3-(3-(3-ethyl-5-((2-fluoro-4-iodophenyl)amino)-6,8-dimethyl-2,4,7-trioxo-3,4,6,7-tetrahydropyrido[4,3-d]pyrimidin-1(2H)-yl)phenyl)propanamide]	1 to 3 nM
Cc1c(=O)n(C)c(Nc2ccc(I)cc2F)c2c(=O)[nH]c(=O)n(-c3cccc(OCC(=O)NC4CC4)c3)c12 [Compound 6, N-cyclopropyl-2-(3-(5-((2-fluoro-4-iodophenyl)amino)-6,8-dimethyl-2,4,7-trioxo-3,4,6,7-tetrahydropyrido[4,3-d]pyrimidin-1(2H)-yl)phenoxy)acetamide]	0.01 nM
Cc1c(=O)n(C)c(Nc2ccc(I)cc2F)c2c(=O)n(C)c(=O)n(-c3cccc([C@H](O)C(N)=O)c3)c12 [Compound 76, (S)-2-(3-(5-((2-fluoro-4-iodophenyl)amino)-3,6,8-trimethyl-2,4,7-trioxo-3,4,6,7-tetrahydropyrido[4,3-d]pyrimidin-1(2H)-yl)phenyl)-2-hydroxyacetamide]	4 to 100 nM
Cc1c(=O)n(C)c(Nc2ccc(I)cc2F)c2c(=O)n(C)c(=O)n(-c3cccc(C(=O)NC4CCOC4)c3)c12 (centres unmarked) [Compound 51, 3-(5-((2-fluoro-4-iodophenyl)amino)-3,6,8-trimethyl-2,4,7-trioxo-3,4,6,7-tetrahydropyrido[4,3-d]pyrimidin-1(2H)-yl)-N-(tetrahydrofuran-3-yl)benzamide]	0.01 nM
Cc1c(=O)n(C)c(Nc2ccc(I)cc2F)c2c(=O)n(C)c(=O)n(-c3cccc(C(=O)NC4COC4)c3)c12 [Compound 49, 3-(5-((2-fluoro-4-iodophenyl)amino)-3,6,8-trimethyl-2,4,7-trioxo-3,4,6,7-tetra hydropyrido[4,3-d]pyrimidin-1(2H)-yl)-N-(oxetan-3-yl)benzamide]	0.01 nM
Cc1c(=O)n(C)c(Nc2ccc(I)cc2F)c2c(=O)n(C3CC3)c(=O)n(-c3cccc(C(=O)N4CCCC4)c3)c12 [Compound 27, 3-cyclopropyl-5-((2-fluoro-4-iodophenyl)amino)-6,8-dimethyl-1-(3-(pyrrolidine-1-carbonyl)phenyl)pyrido[4,3-d]pyrimidine-2,4,7(1H,3H,6H)-trione]	1 to 3 nM
Cc1c(=O)n(C)c(Nc2ccc(I)cc2F)c2c(=O)n(C3CC3)c(=O)n(-c3cccc(C(O)C(N)=O)c3)c12 (centres unmarked) [Compound 32, 2-(3-(3-cyclopropyl-5-((2-fluoro-4-iodophenyl)amino)-6,8-dimethyl-2,4,7-trioxo-3,4,6,7-tetrahydropyrido[4,3-d]pyrimidin-1(2H)-yl)phenyl)-2-hydroxyacetamide]	1 to 3 nM
Cc1c(=O)n(C)c(Nc2ccc(I)cc2F)c2c(=O)[nH]c(=O)n(-c3cccc(CC(=O)NC4CC4)c3)c12 [Compound 4, N-cyclopropyl-2-(3-(5-((2-fluoro-4-iodophenyl)amino)-6,8-dimethyl-2,4,7-trioxo-3,4,6,7-tetrahydropyrido[4,3-d]pyrimidin-1(2H)-yl)phenyl)acetamide]	1 to 3 nM
Cc1c(=O)n(C)c(Nc2ccc(I)cc2F)c2c(=O)[nH]c(=O)n(-c3cccc(CCC(=O)NC4CC4)c3)c12 [Compound 19, N-cyclopropyl-3-(3-(5-((2-fluoro-4-iodophenyl)amino)-6,8-dimethyl-2,4,7-trioxo-3,4,6,7-tetrahydropyrido[4,3-d]pyrimidin-1(2H)-yl)phenyl)propanamide]	4 to 100 nM
Cc1c(=O)n(C)c(Nc2ccc(I)cc2F)c2c(=O)n(C)c(=O)n(-c3cccc(C(=O)N4CCC4)c3)c12 [Compound 56, 1-(3-(azetidine-1-carbonyl)phenyl)-5-((2-fluoro-4-iodophenyl)amino)-3,6,8-trimethylpyrido[4,3-d]pyrimidine-2,4,7(1H,3H,6H)-trione]	1 to 3 nM
CNC(=O)CCc1cccc(-n2c(=O)[nH]c(=O)c3c(Nc4ccc(I)cc4F)n(C)c(=O)c(C)c32)c1 [Compound 15, 3-(3-(5-((2-fluoro-4-iodophenyl)amino)-6,8-dimethyl-2,4,7-trioxo-3,4,6,7-tetrahydropyrido[4,3-d]pyrimidin-1(2H)-yl)phenyl)-N-methylpropanamide]	1 to 3 nM
Cc1c(=O)n(C)c(Nc2ccc(I)cc2F)c2c(=O)[nH]c(=O)n(-c3cccc(C(=O)NC4(C(N)=O)CC4)c3)c12 [Compound 12, N-(1-carbamoylcyclopropyl)-3-(5-((2-fluoro-4-iodophenyl)amino)-6,8-dimethyl-2,4,7-trioxo-3,4,6,7-tetrahydropyrido[4,3-d]pyrimidin-1(2H)-yl)benzamide]	4 to 100 nM
Cc1c(Nc2ccc(I)cc2F)c2c(=O)[nH]c(=O)n(-c3cccc(C(F)(F)C(N)=O)c3)c2n(C)c1=O [Compound 11, 2,2-difluoro-2-(3-(5-((2-fluoro-4-iodophenyl)amino)-6,8-dimethyl-2,4,7-trioxo-3,4,7,8-tetrahydropyrido[2,3-d]pyrimidin-1(2H)-yl)phenyl)acetamide]	0.1 to 0.9 nM
Cc1c(=O)n(C)c(Nc2ccc(I)cc2F)c2c(=O)[nH]c(=O)n(-c3cccc(C(=O)N4CCN(C)CC4)c3)c12 [Compound 21, 5-((2-fluoro-4-iodophenyl)amino)-6,8-dimethyl-1-(3-(4-methylpiperazine-1-carbonyl)phenyl)pyrido[4,3-d]pyrimidine-2,4,7(1H,3H,6H)-trione]	0.1 to 0.9 nM
Cc1c(=O)n(C)c(Nc2ccc(I)cc2F)c2c(=O)[nH]c(=O)n(-c3cccc(C(=O)NC4CCOCC4)c3)c12 [Compound 13, 3-(5-((2-fluoro-4-iodophenyl)amino)-6,8-dimethyl-2,4,7-trioxo-3,4,6,7-tetrahydropyrido[4,3-d]pyrimidin-1(2H)-yl)-N-(tetrahydro-2H-pyran-4-yl)benzamide]	0.01 nM
